# Laboratory results taken from patent US20080009418A1, “Selective Inhibitors” (Alchemia LTD., priority 2004, published 2008).
# Legend:
# [1] = target: T1, Human melanin-concentrating hormone (MCH1) (Homo sapiens, UniProt Q99705); experiment: Radioligand binding, human melanin-concentrating hormone MCH1 membranes, FlashPlate, [125I]-S36057; conditions: compound at 10 μM; [125I]-S36057, FlashPlate
# T1 construct: purchased Perkin Elmer Biosignal
# Outline: (§1)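 Cloned human receptor membranes were coated onto FlashPlate wells and incubated with radioligand and compound (added from a 0.5 mM DMSO daughter plate) for 1 hour at room temperature in the dark. Scintillation counting gave percent inhibition, with DMSO defining total and reference ligand defining non-specific binding.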
# [2] = target: T2, Human neuropeptide Y (NPY-Y1) (Homo sapiens, UniProt P25929); experiment: Radioligand binding, human neuropeptide Y NPY-Y1 membranes, FlashPlate, [125I]-PYY; conditions: compound at 10 μM; [125I]-PYY, FlashPlate
# T2 construct: purchased Perkin Elmer Biosignal
# T2 sequence (P25929 1-384): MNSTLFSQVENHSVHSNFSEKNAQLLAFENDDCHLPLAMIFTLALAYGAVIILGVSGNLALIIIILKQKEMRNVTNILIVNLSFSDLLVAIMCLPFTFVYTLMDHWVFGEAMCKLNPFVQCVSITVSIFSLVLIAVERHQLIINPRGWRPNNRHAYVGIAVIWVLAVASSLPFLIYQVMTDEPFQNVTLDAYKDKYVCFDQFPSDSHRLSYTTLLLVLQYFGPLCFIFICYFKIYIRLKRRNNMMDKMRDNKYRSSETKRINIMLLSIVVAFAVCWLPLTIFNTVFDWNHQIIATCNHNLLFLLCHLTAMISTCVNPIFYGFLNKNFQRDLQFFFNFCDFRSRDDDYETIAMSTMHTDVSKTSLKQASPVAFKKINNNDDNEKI
# Outline: as §1
# Human neurokinin (NK1) = target: T3, Human neurokinin (NK1) (Homo sapiens, UniProt P25103); experiment: Radioligand binding, human neurokinin NK1 membranes, filtration, [125I]-Substance P; conditions: compound at 10 μM; [125I]-Substance P, filtration
# T3 construct: purchased Perkin Elmer Biosignal
# Outline: (§2)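 Percent inhibition of radioligand binding measured on recombinant human membranes: NK1 with [125I]-Substance P, KOP with [3H]-Diprenorphine. Incubation 1 h at room temperature, then harvest onto 0.3% PEI-soaked filters, cold Tris-HCl pH 7.4 washes and scintillation counting; non-specific binding from reference ligand wells.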
# Human Melanocortin (MC4) = target: T4, Human Melanocortin (MC4) (Homo sapiens, UniProt P32245); experiment: Radioligand binding, human melanocortin MC4 membranes, FlashPlate, [125I]-NDP-αMSH; conditions: compound at 10 μM; [125I]-NDP-αMSH, FlashPlate
# T4 construct: purchased Perkin Elmer Biosignal
# Outline: as §1
# Human opioid (ORL1) = target: T5, Human opioid (ORL1) (Homo sapiens, UniProt P41146); experiment: Radioligand binding, human opioid ORL1 membranes, FlashPlate, [125I]-Nociceptin; conditions: compound at 10 μM; [125I]-Nociceptin, FlashPlate
# T5 construct: purchased Perkin Elmer Biosignal
# Outline: as §1
# Mouse urotensin (mUR2) = target: T6, Mouse urotensin (mUR2) (Mus musculus, UniProt Q8VIH9); experiment: Radioligand binding, mouse urotensin mUR2 membranes, FlashPlate, [125I]-Urotensin II; conditions: compound at 10 μM; [125I]-Urotensin II, FlashPlate
# T6 construct: purchased Perkin Elmer Biosignal
# T6 sequence (Q8VIH9 1-385): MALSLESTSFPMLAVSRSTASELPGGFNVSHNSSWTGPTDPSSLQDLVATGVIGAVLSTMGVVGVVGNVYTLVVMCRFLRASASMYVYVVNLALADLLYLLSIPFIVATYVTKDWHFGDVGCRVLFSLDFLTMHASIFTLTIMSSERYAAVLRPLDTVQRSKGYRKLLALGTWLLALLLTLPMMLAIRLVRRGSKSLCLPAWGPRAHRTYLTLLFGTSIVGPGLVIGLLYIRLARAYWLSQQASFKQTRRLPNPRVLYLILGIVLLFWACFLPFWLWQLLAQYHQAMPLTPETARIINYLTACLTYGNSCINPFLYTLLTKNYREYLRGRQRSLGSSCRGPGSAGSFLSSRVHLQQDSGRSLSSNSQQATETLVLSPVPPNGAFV
# Outline: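 Cloned mouse urotensin (mUR2) receptor membranes from Perkin Elmer Biosignal were immobilized in FlashPlate microplates using a proprietary coating. Each well got 19.5 μl buffer, then 0.5 μl of DMSO, reference ligand, or compound. Adding 5 μl of [125I]-Urotensin II, diluted to 5× final concentration in binding buffer, started binding. Plates were sealed with TopSeal-A and incubated 1 hour at room temperature in the dark. Wells were counted for 30 seconds each on a TopCount after a 60-second delay, and percentage inhibition was calculated.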
# Human δ-opioid (DOP) = target: T7, Human δ-opioid (DOP) (Homo sapiens, UniProt P41143); experiment: Radioligand binding, human δ-opioid (DOP) membranes, FlashPlate, [3H]-Bremazocine; conditions: compound at 10 μM; [3H]-Bremazocine, FlashPlate
# T7 construct: purchased Perkin Elmer Biosignal
# Outline: as §1
# Human μ-opioid (MOP) = target: T8, Human μ-opioid (MOP) (Homo sapiens, UniProt P35372); experiment: Radioligand binding, human μ-opioid (MOP) membranes, FlashPlate, [3H]-Naloxone; conditions: compound at 10 μM; [3H]-Naloxone, FlashPlate
# T8 construct: purchased Perkin Elmer Biosignal
# Outline: as §1
# Human κ-Opioid (KOP) = target: T9, Human κ-Opioid (KOP) (Homo sapiens, UniProt P41145); experiment: Radioligand binding, human κ-opioid (KOP) membranes, filtration, [3H]-Diprenorphine; conditions: compound at 10 μM; [3H]-Diprenorphine, filtration
# T9 construct: purchased Perkin Elmer Biosignal
# Outline: as §2
# Human melanocortin (MC5) = target: T10, Human melanocortin (MC5) (Homo sapiens, UniProt P33032); experiment: Radioligand binding, human melanocortin MC5 membranes, FlashPlate, [125I]-NDP-αMSH; conditions: compound at 10 μM; [125I]-NDP-αMSH, FlashPlate
# T10 construct: purchased Perkin Elmer Biosignal
# Outline: as §1
# Human Melanocortin (MC3) = target: T11, Human Melanocortin (MC3) (Homo sapiens, UniProt P41968); experiment: Radioligand binding, human melanocortin MC3 membranes, FlashPlate, [125I]-NDP-αMSH; conditions: compound at 10 μM; [125I]-NDP-αMSH, FlashPlate
# T11 construct: purchased Perkin Elmer Biosignal
# Outline: as §1
# T5 sequence (P41146 whole entry): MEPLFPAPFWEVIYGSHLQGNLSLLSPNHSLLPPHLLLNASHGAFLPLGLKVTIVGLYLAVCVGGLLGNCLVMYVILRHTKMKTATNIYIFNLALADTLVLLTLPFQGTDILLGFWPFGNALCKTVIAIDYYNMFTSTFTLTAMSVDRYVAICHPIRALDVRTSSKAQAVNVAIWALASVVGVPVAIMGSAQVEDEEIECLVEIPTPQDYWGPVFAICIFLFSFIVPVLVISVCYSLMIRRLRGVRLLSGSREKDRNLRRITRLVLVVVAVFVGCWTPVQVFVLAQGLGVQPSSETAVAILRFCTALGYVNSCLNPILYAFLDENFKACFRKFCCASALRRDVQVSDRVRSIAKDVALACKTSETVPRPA
# T8 sequence (P35372 whole entry): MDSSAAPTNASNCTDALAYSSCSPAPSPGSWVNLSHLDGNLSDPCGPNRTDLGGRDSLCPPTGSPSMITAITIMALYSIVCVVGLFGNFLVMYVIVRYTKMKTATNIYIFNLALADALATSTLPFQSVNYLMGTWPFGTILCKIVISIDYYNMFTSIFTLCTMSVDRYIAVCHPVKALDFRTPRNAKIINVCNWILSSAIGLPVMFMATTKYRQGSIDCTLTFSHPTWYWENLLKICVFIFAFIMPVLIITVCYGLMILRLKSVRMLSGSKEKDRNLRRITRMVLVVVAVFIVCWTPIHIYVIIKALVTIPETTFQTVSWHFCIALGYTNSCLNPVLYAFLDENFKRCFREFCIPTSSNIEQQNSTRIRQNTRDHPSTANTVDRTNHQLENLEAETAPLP
# T9 sequence (P41145 whole entry): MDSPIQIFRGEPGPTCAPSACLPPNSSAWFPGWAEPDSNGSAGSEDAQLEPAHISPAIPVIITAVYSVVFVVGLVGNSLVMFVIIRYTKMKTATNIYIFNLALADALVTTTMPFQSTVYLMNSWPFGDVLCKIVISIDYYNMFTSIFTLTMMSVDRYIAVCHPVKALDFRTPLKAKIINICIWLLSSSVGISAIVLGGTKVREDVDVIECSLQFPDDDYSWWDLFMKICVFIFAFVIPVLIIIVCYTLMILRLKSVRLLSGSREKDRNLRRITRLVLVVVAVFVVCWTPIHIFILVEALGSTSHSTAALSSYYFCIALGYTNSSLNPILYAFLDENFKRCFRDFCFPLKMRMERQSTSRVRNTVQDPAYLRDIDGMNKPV
# T10 sequence (P33032 whole entry): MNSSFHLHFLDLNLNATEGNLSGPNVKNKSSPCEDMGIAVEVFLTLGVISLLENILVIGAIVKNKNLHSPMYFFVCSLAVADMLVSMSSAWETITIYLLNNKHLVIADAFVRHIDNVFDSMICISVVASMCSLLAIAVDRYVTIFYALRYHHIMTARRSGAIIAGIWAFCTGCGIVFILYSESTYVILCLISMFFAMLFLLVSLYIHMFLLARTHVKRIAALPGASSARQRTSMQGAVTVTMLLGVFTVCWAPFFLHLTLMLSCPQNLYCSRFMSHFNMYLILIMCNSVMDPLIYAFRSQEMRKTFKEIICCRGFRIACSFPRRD
# T11 sequence (P41968 whole entry): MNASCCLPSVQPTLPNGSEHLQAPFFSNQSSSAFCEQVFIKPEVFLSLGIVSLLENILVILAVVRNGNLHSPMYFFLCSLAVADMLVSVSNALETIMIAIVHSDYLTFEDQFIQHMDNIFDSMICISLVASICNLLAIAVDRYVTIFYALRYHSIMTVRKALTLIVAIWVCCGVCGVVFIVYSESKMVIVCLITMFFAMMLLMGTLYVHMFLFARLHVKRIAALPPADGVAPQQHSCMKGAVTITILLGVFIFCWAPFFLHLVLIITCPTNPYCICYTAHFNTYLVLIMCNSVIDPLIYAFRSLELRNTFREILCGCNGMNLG
# T3 sequence (P25103 whole entry): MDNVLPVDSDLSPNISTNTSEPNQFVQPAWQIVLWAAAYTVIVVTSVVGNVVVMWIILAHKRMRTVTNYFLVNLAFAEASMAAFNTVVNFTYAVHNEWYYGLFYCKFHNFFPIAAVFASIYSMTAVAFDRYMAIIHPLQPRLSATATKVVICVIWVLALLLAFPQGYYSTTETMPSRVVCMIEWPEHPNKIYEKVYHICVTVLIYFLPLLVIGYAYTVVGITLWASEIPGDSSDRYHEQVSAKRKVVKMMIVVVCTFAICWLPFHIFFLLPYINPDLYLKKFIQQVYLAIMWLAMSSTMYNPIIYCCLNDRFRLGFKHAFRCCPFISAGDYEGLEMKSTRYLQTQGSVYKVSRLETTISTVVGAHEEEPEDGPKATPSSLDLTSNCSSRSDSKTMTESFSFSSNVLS
# T7 sequence (P41143 whole entry): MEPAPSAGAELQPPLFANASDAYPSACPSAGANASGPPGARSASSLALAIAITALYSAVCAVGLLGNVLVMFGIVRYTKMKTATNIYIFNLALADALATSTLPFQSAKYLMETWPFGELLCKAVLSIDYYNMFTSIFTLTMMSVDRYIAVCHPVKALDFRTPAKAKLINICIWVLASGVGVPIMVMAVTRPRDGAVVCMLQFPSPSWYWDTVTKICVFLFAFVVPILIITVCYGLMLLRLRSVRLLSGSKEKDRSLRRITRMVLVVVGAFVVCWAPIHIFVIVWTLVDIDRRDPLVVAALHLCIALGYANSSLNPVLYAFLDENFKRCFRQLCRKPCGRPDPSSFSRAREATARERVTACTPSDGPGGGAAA
# T4 sequence (P32245 whole entry): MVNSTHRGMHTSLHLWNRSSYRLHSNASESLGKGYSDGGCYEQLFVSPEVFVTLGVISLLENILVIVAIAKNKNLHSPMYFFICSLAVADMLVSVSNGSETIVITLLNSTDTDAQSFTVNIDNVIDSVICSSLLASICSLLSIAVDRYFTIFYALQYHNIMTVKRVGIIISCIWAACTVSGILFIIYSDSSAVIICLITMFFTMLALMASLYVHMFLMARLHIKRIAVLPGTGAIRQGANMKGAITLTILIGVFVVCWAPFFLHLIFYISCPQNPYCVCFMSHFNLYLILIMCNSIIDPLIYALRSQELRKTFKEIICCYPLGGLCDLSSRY
# T1 sequence (Q99705 whole entry): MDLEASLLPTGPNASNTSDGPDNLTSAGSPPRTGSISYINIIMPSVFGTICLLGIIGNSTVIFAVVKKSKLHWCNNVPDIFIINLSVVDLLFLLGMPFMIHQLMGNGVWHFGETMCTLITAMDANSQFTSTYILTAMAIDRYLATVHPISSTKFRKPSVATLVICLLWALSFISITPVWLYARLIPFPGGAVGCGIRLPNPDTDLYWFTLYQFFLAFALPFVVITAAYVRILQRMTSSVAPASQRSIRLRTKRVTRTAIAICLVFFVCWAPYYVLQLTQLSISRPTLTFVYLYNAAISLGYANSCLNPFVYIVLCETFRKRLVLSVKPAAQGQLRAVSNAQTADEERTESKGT
SMILES,A6: inhibition of radioligand binding [1],A9: inhibition of radioligand binding [2],A8: inhibition of radioligand binding (Human neurokinin (NK1)),A4: inhibition of radioligand binding (Human Melanocortin (MC4)),A10: inhibition of radioligand binding (Human opioid (ORL1)),A11: inhibition of radioligand binding (Mouse urotensin (mUR2)),A1: inhibition of radioligand binding (Human δ-opioid (DOP)),A7: inhibition of radioligand binding (Human μ-opioid (MOP)),A2: inhibition of radioligand binding (Human κ-Opioid (KOP)),A5: inhibition of radioligand binding (Human melanocortin (MC5)),A3: inhibition of radioligand binding (Human Melanocortin (MC3))
COCC1OC(OCCc2ccccc2)C(NC(=O)CCCN)C(OCc2ccccc2)C1O (stereo not drawn) [compound 217],− (“−” indicates less than 50% inhibition at 10 μM),− (“−” indicates less than 50% inhibition at 10 μM),+ (“+” indicates greater than 50% inhibition at 10 μM),− (“−” indicates less than 50% inhibition at 10 μM),− (“−” indicates less than 50% inhibition at 10 μM),− (“−” indicates less than 50% inhibition at 10 μM),− (“−” indicates less than 50% inhibition at 10 μM),− (“−” indicates less than 50% inhibition at 10 μM),− (“−” indicates less than 50% inhibition at 10 μM),− (“−” indicates less than 50% inhibition at 10 μM),− (“−” indicates less than 50% inhibition at 10 μM)
COCC1OC(OCCc2ccccc2)C(NC(=O)CCCNC(=N)N)C(OCc2ccccc2)C1O (stereo not drawn) [compound 218],− (“−” indicates less than 50% inhibition at 10 μM),− (“−” indicates less than 50% inhibition at 10 μM),+ (“+” indicates greater than 50% inhibition at 10 μM),− (“−” indicates less than 50% inhibition at 10 μM),− (“−” indicates less than 50% inhibition at 10 μM),− (“−” indicates less than 50% inhibition at 10 μM),− (“−” indicates less than 50% inhibition at 10 μM),− (“−” indicates less than 50% inhibition at 10 μM),− (“−” indicates less than 50% inhibition at 10 μM),− (“−” indicates less than 50% inhibition at 10 μM),− (“−” indicates less than 50% inhibition at 10 μM)
COCC1OC(OCCc2ccccc2)C(NC(=O)CN)C(OCc2ccc(Cl)cc2)C1O (stereo not drawn) [compound 219],− (“−” indicates less than 50% inhibition at 10 μM),− (“−” indicates less than 50% inhibition at 10 μM),+ (“+” indicates greater than 50% inhibition at 10 μM),− (“−” indicates less than 50% inhibition at 10 μM),− (“−” indicates less than 50% inhibition at 10 μM),− (“−” indicates less than 50% inhibition at 10 μM),− (“−” indicates less than 50% inhibition at 10 μM),− (“−” indicates less than 50% inhibition at 10 μM),− (“−” indicates less than 50% inhibition at 10 μM),+ (“+” indicates greater than 50% inhibition at 10 μM),− (“−” indicates less than 50% inhibition at 10 μM)
COCC1OC(OCCc2ccccc2)C(NC(=O)CNC(=N)N)C(OCc2ccc(Cl)cc2)C1O (stereo not drawn) [compound 220],− (“−” indicates less than 50% inhibition at 10 μM),− (“−” indicates less than 50% inhibition at 10 μM),+ (“+” indicates greater than 50% inhibition at 10 μM),+ (“+” indicates greater than 50% inhibition at 10 μM),− (“−” indicates less than 50% inhibition at 10 μM),− (“−” indicates less than 50% inhibition at 10 μM),− (“−” indicates less than 50% inhibition at 10 μM),− (“−” indicates less than 50% inhibition at 10 μM),− (“−” indicates less than 50% inhibition at 10 μM),+ (“+” indicates greater than 50% inhibition at 10 μM),+ (“+” indicates greater than 50% inhibition at 10 μM)
COCC1OC(OCCc2ccccc2)C(NC(=O)CCN)C(OCc2ccc(Cl)cc2)C1O (stereo not drawn) [compound 221],− (“−” indicates less than 50% inhibition at 10 μM),− (“−” indicates less than 50% inhibition at 10 μM),+ (“+” indicates greater than 50% inhibition at 10 μM),− (“−” indicates less than 50% inhibition at 10 μM),− (“−” indicates less than 50% inhibition at 10 μM),− (“−” indicates less than 50% inhibition at 10 μM),− (“−” indicates less than 50% inhibition at 10 μM),− (“−” indicates less than 50% inhibition at 10 μM),− (“−” indicates less than 50% inhibition at 10 μM),+ (“+” indicates greater than 50% inhibition at 10 μM),− (“−” indicates less than 50% inhibition at 10 μM)
COCC1OC(OCCc2ccccc2)C(NC(=O)CCCN)C(OCc2ccc(Cl)cc2)C1O (stereo not drawn) [compound 222],− (“−” indicates less than 50% inhibition at 10 μM),− (“−” indicates less than 50% inhibition at 10 μM),+ (“+” indicates greater than 50% inhibition at 10 μM),− (“−” indicates less than 50% inhibition at 10 μM),− (“−” indicates less than 50% inhibition at 10 μM),− (“−” indicates less than 50% inhibition at 10 μM),− (“−” indicates less than 50% inhibition at 10 μM),− (“−” indicates less than 50% inhibition at 10 μM),− (“−” indicates less than 50% inhibition at 10 μM),+ (“+” indicates greater than 50% inhibition at 10 μM),− (“−” indicates less than 50% inhibition at 10 μM)
